Assay results reported in patent publication US8178506B2, “Oligomeric compounds and compositions for use in modulation of small non-coding RNAs” (Regulus Therapeutics Inc., priority 2003, dated 2012).
In the oligonucleotide strings, read from the 5' end, every base follows the letter of its sugar. An asterisk marks phosphorothioate; unmarked linkages are phosphodiester. Other units and linkages are bracketed, terminal groups are in braces. A string of capitals states the bases alone. e = 2'-O-(2-methoxyethyl) (MOE); [5mC] = 5-methylcytosine; d = 2'-deoxy (DNA)

Experiments:
aP2 = aP2 mRNA expression in adipocytes (real-time PCR); type: cell-based, human
adipocytes = assay: Triglyceride accumulation assay in adipocytes; type: cell-based, human
HuVECs = assay: Endothelial tube formation assay in HuVECs; conditions: 75 nM oligomeric compound, Table 59
PPARγ = PPARγ mRNA expression in adipocytes (real-time PCR); type: cell-based, human
leptin = assay: Leptin secretion by adipocytes (ELISA); type: cell-based, human; conditions: adipocytes, 250 nM oligomeric compound, day nine post-transfection, relative to control (1.0); Table 16
Procedure: Leptin secretion into the medium in which adipocytes are cultured is measured by protein ELISA. On day nine post-transfection, 96-well plates are coated with a monoclonal antibody to human leptin (R&D Systems, Minneapolis, Minn.) and left at 4° C. overnight. The plates are blocked with bovine serum albumin (BSA), and a dilution of the treated adipoctye medium is incubated in the plate at room temperature for approximately 2 hours. After washing to remove unbound components, a second monoclonal antibody to human leptin (conjugated with biotin) is added. The plate is then incubated with strepavidin-conjugated horse radish peroxidase (HRP) and enzyme levels are determined by incubation with 3, 3′,5,5′-tetramethlybenzidine, which turns blue when cleaved by HRP. The OD450 is read for each well, where the dye absorbance is proportional to the leptin concentration in the cell lysate.
Leptin is also a marker for differentiated adipocytes. In the adipocyte assay, leptin secretion into the media above the differentiated adipocytes was measured by protein ELISA. Cell growth, transfection and differentiation procedures were carried out as described for the Triglyceride accumulation assay (see below). On day nine post-transfection, 96-well plates were coated with a monoclonal antibody to human leptin (R&D Systems, Minneapolis, Minn.) and left at 4° C. overnight. The plates were blocked with bovine serum albumin (BSA), and a dilution of the media was incubated in the plate at RT for 2 hours. After washing to remove unbound components, a second monoclonal antibody to human leptin (conjugated with biotin) was added. The plate was then incubated with strepavidin-conjugated horseradish peroxidase (HRP) and enzyme levels are determined by incubation with 3, 3′, 5,5′-Tetramethlybenzidine, which turns blue when cleaved by HRP. The OD450 was read for each well, where the dye absorbance is proportional to the leptin concentration in the cell lysate. Results are expressed as a percent±standard deviation relative to transfectant-only controls.

HSL = HSL mRNA expression in adipocytes (real-time PCR); type: cell-based, human
Glut4 = Glut4 mRNA expression in adipocytes (real-time PCR); type: cell-based, human
preadipocytes = assay: Caspase assay in preadipocytes; type: cell-based, human; conditions: untreated control set equal to 1.0
Source text: The effect of oligomeric compounds of the present invention targeting miRNAs was examined in preadipocytes (Zen-Bio, Inc., Research Triangle Park, N.C.) using the fluorometric caspase assay previously described in Example 11.

mir-21 miRNA = assay: pGL3-mir-21 sensor luciferase assay in HeLa cells; type: cell-based, human; conditions: Table 50, pGL3-mir-21 sensor-expressing HeLa cells, normalized to pRL-CMV
Source text: In order to assess the ability of miRNAs to bind predicted miRNA binding sites and regulate the expression of the luciferase reporter, in some embodiments, expression systems based on the pGL3-Control (Promega Corp., Madison Wis.) reporter vector and comprising either a mir-15a, mir-21, or a mir-23b miRNA binding site were developed and used in transient transfections of HeLa cells to determine whether the endogenous mir-15a, mir-21, or mir-23b miRNAs, respectively, could repress luciferase reporter gene expression.
The pGL3-mir-21 sensor plasmid was created by cloning the sequence ([…]; SEQ ID NO: 335), representing a sequence complementary to the mir-21 miRNA, into the Xba site of the pGL3-Control plasmid, placing the potential miRNA-binding site in the 3′UTR of the luciferase reporter. This reporter plasmid was used to transfect HeLa cells and it was observed that the endogenous mir-21 miRNA was able to inhibit luciferase expression from the pGL3-mir-21 sensor plasmid. Thus, to further evaluate the ability of the mir-21 miRNA to bind this target site encoded by the pGL3-mir-21 sensor plasmid, and to assess the ability of oligomeric compounds to interfere with mir-21-mediated silencing, pGL3-mir-21 sensor-expressing HeLa cells were treated with varying concentrations (10 nM or 50 nM) of the following oligomeric compounds: ISIS Number 327917 (SEQ ID NO: 335), a phosphorothioate uniform 2′-MOE oligomeric compound; ISIS Number 338697 ([…]; herein incorporated as SEQ ID NO: 524), a uniform 2′-MOE oligomeric compound targeting the mir-21 pri-miRNA molecule; and ISIS Number 328415 (SEQ ID NO: 524), a 2′-MOE 5-10-5 gapmer oligomeric compound targeting the mir-21 pri-miRNA. The uniform 2′-MOE phosphorothioate oligomeric compound ISIS Number 327901 (SEQ ID NO: 319) targeting an unrelated miRNA (mir-143) was used as a negative control. The data are the average of three trials and are presented in Table 44 as percent untreated control (luciferase plasmid only, not treated with oligomeric compound) luciferase expression, normalized to pRL-CMV levels.
In one embodiment, the oligomeric compounds ISIS Number 327917 (SEQ ID NO: 335), the phosphorothioate uniform 2′-MOE targeting mature mir-21; ISIS Number 358768 (SEQ ID NO: 918), the uniform 2′-MOE targeting the mir-21 pri-miRNA which stimulated the largest increase in pri-miRNA expression levels by real time quantitative RT-PCR; and ISIS Number 345382 (SEQ ID NO: 335), the 5-10-7 phosphorothioate 2′-MOE gapmer targeting mature mir-21 were selected for dose response studies in HeLa cells using the luciferase reporter system described in Example 27. ISIS Number 342683 (SEQ ID NO: 790), representing the scrambled nucleotide sequence of an unrelated PTP1B antisense oligonucleotide, was used as a negative control. HeLa cells expressing the pGL3-mir-21 sensor plasmid (described in Example 27) were treated with 1.9, 5.5, 16.7, and 50 nM of these oligomeric compounds, to assess the ability of oligomeric compounds to interfere with endogenous mir-21-mediated silencing of the pGL3-mir-21 sensor plasmid. The data are presented in Table 50 as percent untreated control (luciferase plasmid only, not treated with oligomeric compound) luciferase expression, normalized to pRL-CMV levels.

mir-21 pri-miRNA = mir-21 pri-miRNA expression in HeLa cells (real-time RT-PCR); type: cell-based, human; conditions: HeLa cells, 100 nM, real-time RT-PCR
Procedure: In one embodiment, the expression of mir-21 (noted to be expressed at high levels in HeLa cells) was assessed in cells treated with oligomeric compounds. Using the transfection methods previously described, HeLa cells were treated with 100 nM of the uniform 2′-MOE oligomeric compound ISIS Number 327917 (SEQ ID NO: 335) targeting the mir-21 mature miRNA. Total RNA was isolated by lysing cells in 1 mL TRIZOL™ (Invitrogen) using the manufacturer's recommended protocols. […] Real-time RT-PCR analysis was also performed on HeLa cells treated with ISIS 327917 using a primer/probe set specific for the mir-21 pri-miRNA molecule [forward primer=ISIS 339332 ([…]; herein incorporated as SEQ ID NO.: 911), reverse primer-ISIS 339333 (TCGACTGGTGTTGCCATGA; herein incorporated as SEQ ID NO.: 912), and probe=ISIS 339334 ([…]; herein incorporated as SEQ ID NO.: 913)]. Total RNA was quantified using RiboGreen™ RNA quantification reagent (Molecular Probes, Inc. Eugene, Oreg.), expression levels observed for the target were normalized to 5.8S rRNA, and values were expressed relative to an untreated control (UTC).
Using the real-time RT-PCR methods, the expression levels of the mir-21 pri-miRNA were compared in HeLa cells treated with this nested series of uniform 2′-MOE oligomeric compounds, targeting and spanning the entire length of the mir-21 pri-miRNA. ISIS Number 358768 (SEQ ID NO: 918) targets a region flanking the predicted 5′ Drosha cleavage site in the mir-21 pri-miRNA. ISIS Number 358777 (SEQ ID NO: 927) targets a region spanning the 3′ Drosha cleavage site in the mir-21 pri-miRNA. ISIS 358779 (SEQ ID NO: 929) targets a region flanking the predicted 3′ Drosha cleavage site in the mir-21 pri-miRNA. Additionally, oligomeric compounds ISIS 327917 (SEQ ID NO: 335), a uniform 2′-MOE compound targeting the mature mir-21 miRNA, and ISIS 345382 ([…]; SEQ ID NO: 335), a 5-10-7 phosphorothioate 2′-MOE gapmer targeting mir-21, were tested for comparison. Oligomeric compound ISIS 327863 ([…]; herein incorporated as SEQ ID NO: 936), a phosphorothioate 5-10-52′-MOE gapmer, was used as scrambled control. […] Total RNA was isolated by lysing cells in 1 mL TRIZOL™ (Invitrogen) using the manufacturer's recommended protocols. real-time RT-PCR analysis was performed using the primer/probe set specific for the mir-21 pri-miRNA molecule [forward primer=ISIS 339332 (SEQ ID NO.: 911), reverse primer-ISIS 339333 (SEQ ID NO.: 912), and probe=ISIS 339334 (SEQ ID NO.: 913)]. Total RNA was quantified using RiboGreen™ RNA quantification reagent (Molecular Probes, Inc. Eugene, Oreg.), expression levels observed for each target were normalized to 5.8S rRNA, and values were expressed relative to the untreated control (UTC). Effects on expression of the mir-21 pri-miRNA molecule resulting from treatment of HeLa cells with these uniform 2′-MOE oligomeric compounds is expressed as a percentage of RNA levels in untreated control cells.

[1] = test system: BJ, B16-F10, T47D, T47Dp53 and HeLa cells; assay: Cell cycle assay (propidium iodide flow cytometry), cell line panel; type: cell-based; conditions: 150 nM oligomeric compound, 4.5 μg/ml LIPOFECTIN, after 72 hours, propidium iodide flow cytometry
T47D cells = assay: Caspase-3 activity assay (apoptosis) in T47D cells; conditions: T47D cells, 48 hours; for Fold Increase over UTC (caspase-3 activity, apoptosis): 200 nM oligomeric compound
[2] = adipocytes, 250 nM oligomeric compound, day nine post-transfection, relative to control (1.0), Table 16
[3] = differentiating adipocytes transfected with oligomeric compound

327955 (antisense eG*e[5mC]*e[5mC]*e[5mC]*eT*eT*eT*e[5mC]*eA*eT*e[5mC]*eA*eT*eT*eG*e[5mC]*eA*e[5mC]*eT*eG) [compound 327955]
AP2 (mRNA expression) (aP2; [2]): 0.74 | TG (triglyceride accumulation) (adipocytes; adipocytes, 250 nM oligomeric compound, relative to control (1.0), Table 16): 0.81 | % Activity Relative to UTC (tube formation) (HuVECs): 46.7% | PPAR gamma (mRNA expression) (PPARγ; [2]): 0.92 | Leptin (secretion) (leptin): 1.22 | HSL (mRNA expression) (HSL; [2]): 0.82 | Glut4 (mRNA expression) (Glut4; [2]): 0.45 | Fold Increase over UTC (caspase activity) (preadipocytes): 4.3 fold over UTC

358768 (eA*eG*eG*eT*eG*eG*eT*eA*e[5mC]*eA*eG*e[5mC]*e[5mC]*eA*eT*eG*eG*eA*eG*eA) [compound 358768]
luciferase expression % UTC (mir-21 miRNA; 1.9 nM): 103 % UTC | luciferase expression % UTC (mir-21 miRNA; 5.5 nM): 163 % UTC | luciferase expression % UTC (mir-21 miRNA; 16.7 nM): 146 % UTC | luciferase expression % UTC (mir-21 miRNA; 50 nM): 118 % UTC | mir-21 pri-miRNA expression % UTC (mir-21 pri-miRNA): 987 % UTC

345382 (TCAACATCAGTCTGATAAGCTA; sugars from the 5' end e5 d10 e7, all phosphorothioate, methylation of C not given here) [compound 345382]
luciferase expression % UTC (mir-21 miRNA; 1.9 nM): 101 % UTC | luciferase expression % UTC (mir-21 miRNA; 5.5 nM): 135 % UTC | luciferase expression % UTC (mir-21 miRNA; 16.7 nM): 117 % UTC | luciferase expression % UTC (mir-21 miRNA; 50 nM): 95 % UTC | mir-21 pri-miRNA expression % UTC (mir-21 pri-miRNA): 119 % UTC

NNNNNNNNNNNNNNNNNNNN [ISIS 29848, reference compound]
AP2 mRNA (aP2; [3]): 89 percentage of untreated control (UTC) | TG (triglyceride accumulation) (adipocytes; [3]): 89 percentage of untreated control (UTC) | PPAR gamma mRNA (PPARγ; [3]): 100 percentage of untreated control (UTC) | HSL mRNA (HSL; [3]): 84 percentage of untreated control (UTC) | GLUT4 mRNA (Glut4; [3]): 96 percentage of untreated control (UTC) | G1 (percentage of cells in phase of the cell cycle) [1]: 57.8% | G2/M (percentage of cells in phase of the cell cycle) [1]: 15.6% | S (percentage of cells in phase of the cell cycle) [1]: 26.5% | SubG1 (percentage of cells in phase of the cell cycle) [1]: 9.6% | aneuploid (percentage of cells) [1]: 12% | Fold Increase over UTC (caspase activity) (preadipocytes): 1.2 fold over UTC | Fold Increase over UTC (caspase-3 activity, apoptosis) (T47D cells; experiment of Table 10): 3.0 fold | Fold Increase over UTC (caspase-3 activity, apoptosis) (T47D cells; experiment of Table 11): 3.2 fold | Fold Increase over UTC (caspase-3 activity, apoptosis) (T47D cells; experiment of Table 12): 3.5 fold | Fold Increase over UTC (caspase activity) (T47D cells; 200 nM, relative to untreated control): 3.5
